Measured values published in patent US20250009914A1, “METHOD FOR SYNTHESIZING HYALURONIC ACID NANOPARTICLES, AND HYALURONIC ACID NANOPARTICLES PREPARED BY METHOD” (Kyungpook National University Industry-Academic Cooperation …, priority 2019, published 2025).

Assays:
[1] = system: HDF-neo, Human primary dermal fibroblast-neonatal; test: Fibroblast proliferation, WST-8 assay (Ez-cytox); assay type: cell-based; conditions: 3 day, serum free condition, FIG. 26
Protocol: Next, the fibroblast proliferation effect was evaluated according to a conventional known method.
Evaluation method: WST-8 assay (Ez-cytox) and Procollagen ELISA (Takara #MK101)

[2] = Thermal stability evaluation by HPLC; assay type: physicochemical; conditions: aqueous solution 100 uM, 50° C. for 48 hours
[3] = system: B16F10 mouse melanoma cell line; test: Melanin contents assay; assay type: cell-based; conditions: B16F10, 48 hours; substance left 24 hours at 50° C. compared with −20° C., FIG. 23
Protocol: Whitening efficacy evaluation was measured by melanin contents assay and cellular tyrosinase activity assay after treating each experimental substance to a B16F10 mouse melanoma cell line and incubating the each experimental substance for 48 hours. As a control, ascorbic acid, ascorbic acid-2-glucoside (AA2G) and HAI (Oligo-HA) used in Example 2 were used. The substances used in the experiment were all left for 24 hours at −20° C. or 50° C. and then used in the experiment.

[4] = target: T1, cellular tyrosinase (Mus musculus, UniProt P11344); test: Cellular tyrosinase activity assay; assay type: cell-based; conditions: B16F10, 48 hours; substance left 24 hours at 50° C. compared with −20° C., FIG. 23
T1 construct: Cell line: B16F10 mouse melanoma (Passage 10), 6 well plate; endogenous in cells; host or cells: B16F10 mouse melanoma cells
T1 sequence (P11344 19-533): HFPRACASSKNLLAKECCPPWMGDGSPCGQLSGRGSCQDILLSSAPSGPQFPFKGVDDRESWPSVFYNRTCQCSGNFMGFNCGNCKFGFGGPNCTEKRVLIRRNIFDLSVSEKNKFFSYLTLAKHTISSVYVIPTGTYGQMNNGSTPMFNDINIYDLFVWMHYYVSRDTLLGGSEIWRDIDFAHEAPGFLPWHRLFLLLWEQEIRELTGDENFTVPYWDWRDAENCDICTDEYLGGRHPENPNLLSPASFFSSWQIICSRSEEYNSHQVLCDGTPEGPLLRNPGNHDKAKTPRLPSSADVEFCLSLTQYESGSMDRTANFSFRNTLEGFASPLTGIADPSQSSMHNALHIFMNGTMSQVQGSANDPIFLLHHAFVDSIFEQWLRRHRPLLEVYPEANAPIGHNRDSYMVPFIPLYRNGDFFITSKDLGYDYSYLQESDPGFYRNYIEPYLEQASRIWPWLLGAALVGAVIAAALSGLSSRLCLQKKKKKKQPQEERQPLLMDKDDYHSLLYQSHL
Protocol: Cell line: B16F10 mouse melanoma (Passage 10), 6 well plate, 4×10^5 cells/well
Evaluation method: Cellular tyrosinase activity assay
Experimental substance treatment time: 48 hours
Experimental substance treatment concentration: See FIG. 25

Row | oxidation over time [2] | tyrosinase activity (whitening efficacy) [4] | Compound | fibroblast proliferation promoting efficacy [1] | melanin production (whitening efficacy) [3]
1 |  |  | O=C1O[C@H]([C@@H](O)CO)C(O)=C1O[C@H]1O[C@H](CO)[C@@H](O)[C@H](O)[C@H]1O [AA2G, ascorbic acid-2-glucoside] | almost not shown | 
2 |  |  | CCCCCCCCCCCCCCCC(=O)OCC(O)C1OC(=O)C(OP(=O)(O)O)=C1O (stereo not drawn) [APPS] | almost not shown | 
3 | not oxidized over time | whitening efficacy disappeared | O=C1O[C@H]([C@@H](O)CO)C(O)=C1O [ascorbic acid] | almost not shown | whitening efficacy disappeared
